# Patent US9073821B2, “Hydroxamic acid derivative” (priority 2010, dated 2015)
# Like-named read-outs stand apart in the source and are kept apart here.
# How the values were obtained:
# [1] = tested on: Pseudomonas aeruginosa strain TS88 (clinical isolate); assay: Antimicrobial activity, MIC by broth microdilution; assay type: cell-based; conditions: 18 hours
# Text: (§1) Test 3: Evaluation of Antimicrobial Activity For minimum inhibitory concentration (MIC) measurement, the following broth microdilution method was applied as adapted from the standard procedure recommended by the CLSI (Clinical and Laboratory Standards Institute). The bacteria used were Pseudomonas aeruginosa strain TS88 (clinical isolate), E. coli strain ATCC25922, and Klebsiella pneumoniae strain ATCC13883. After culture overnight on a heart infusion agar medium, the cells of a test bacterium were scraped off and suspended to give a turbidity of level 0.5 on the McFarland scale; the suspension was then diluted 10 fold to prepare an inoculum solution. A 0.005 mL aliquot of the inoculum solution was inoculated in a cation-adjusted Mueller-Hinton broth medium containing a test compound and cultured at 35° C. for 18 hours. A minimum drug concentration at which no cell growth was visible to the naked eye was designated as MIC.
# [2] = tested on: Klebsiella pneumoniae strain ATCC13883; assay: Antimicrobial activity, MIC by broth microdilution; assay type: cell-based; conditions: Table 4, 35° C., 18 hours, read-out: Klebsiella pneumoniae ATCC 13883 strain MIC
# Text: as §1
# E. coli strain ATCC25922 = assay: Antimicrobial activity, MIC by broth microdilution; assay type: cell-based; conditions: Escherichia coli, Table 4, 35° C., 18 hours, read-out: E. coli ATCC 25922 strain MIC
# Text: as §1
# E. coli LpxC enzyme = E. coli LpxC enzyme (Escherichia coli (strain K12), UniProt P0A725); assay: Inhibitory activity on E. coli LpxC enzyme (fluorescamine assay); assay type: biochemical; conditions: Table 4
# Protocol: Test 2: Evaluation of the Inhibitory Activity on E. coli LpxC Enzyme
# An inhibition curve was constructed for each test compound by performing the aforementioned reaction at varying concentrations of the test compound. From this inhibition curve, the concentration of the test compound at which the formation of the reaction product was suppressed by 50% was determined as the IC50 of the test compound, which was an index for the inhibitory activity on E. coli LpxC enzyme.
# [3] = target: Pseudomonas aeruginosa LpxC enzyme (Pseudomonas aeruginosa (strain ATCC 15692 / DSM 22644 / CIP 104116 / JCM 14847 / LMG 12228 / 1C / PRS 101 / PAO1), UniProt P47205); assay: biochemical; assay type: biochemical
# [4] = Table 4, 35° C., read-out: Pseudomonas aeruginosa TS88 strain MIC
# [5] = Table 1, 35° C., read-out: MIC Pseudomonas aeruginosa TS88 strain
# [6] = Table 1, read-out: Pseudomonas aeruginosa LpxC IC50
# E. coli LpxC enzyme, sequence (P0A725 whole entry): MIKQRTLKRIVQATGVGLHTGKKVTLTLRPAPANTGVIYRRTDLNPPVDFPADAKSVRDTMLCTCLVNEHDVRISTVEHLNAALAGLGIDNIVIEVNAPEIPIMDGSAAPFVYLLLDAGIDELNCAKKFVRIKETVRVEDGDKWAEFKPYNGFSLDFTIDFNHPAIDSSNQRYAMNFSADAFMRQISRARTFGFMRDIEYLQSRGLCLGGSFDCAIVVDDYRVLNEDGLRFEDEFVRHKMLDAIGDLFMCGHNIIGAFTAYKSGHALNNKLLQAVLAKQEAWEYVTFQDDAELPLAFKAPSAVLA
"MIC [1, 4]",MIC [2],MIC (E. coli strain ATCC25922),SMILES,"MIC [1, 5]","IC50 [3, 6]",other results
1 µg/mL,2 µg/mL,0.5 µg/mL,"CNC(=O)[C@@](C)(C(=O)NO)N(C)C(=O)c1ccc(C#Cc2ccc(CN3CC4(COC4)C3)cc2)cc1 [Compound 416, (2S)-N-hydroxy-N′,2-dimethyl-2-{methyl[(4-{[4-(2-oxa-6-azaspiro[3.3]hept-6-ylmethyl)phenyl]ethynyl}phenyl)carbonyl]amino}propanediamide]",,,
1 µg/mL,1 µg/mL,0.25 µg/mL,"CNC(=O)[C@@](C)(C(=O)NO)N(C)C(=O)c1ccc(C#Cc2ccc(CN3CC(OCCF)C3)cc2)cc1 [Compound 559, (2S)-2-[({4-[(4-{[3-(2-fluoroethoxy)azetidin-1-yl]methyl}phenyl)ethynyl]phenyl}carbonyl)(methyl)amino]-N-hydroxy-N′,2-dimethylpropanediamide]",,,
,,,"CNC(=O)C(C(=O)NO)N(C)C(=O)c1ccc(-c2ccc(C)cc2)cc1 (centres unmarked) [Compound 5, N-hydroxy-N′-methyl-2-{methyl[(4′-methylbiphenyl-4-yl)carbonyl]amino}propanediamide]",0.25 µg/mL,3.7 nM,
0.5 µg/mL,0.5 µg/mL,0.25 µg/mL,"CNC(=O)[C@@](C)(C(=O)NO)N(C)C(=O)c1ccc(C#Cc2ccc(CNC3CC3)cc2)cc1 [Compound 553, (2S)-2-[{[4-({4-[(cyclopropylamino)methyl]phenyl}ethynyl)phenyl]carbonyl}(methyl)amino]-N-hydroxy-N′,2-dimethylpropanediamide]",,,
,,,"CNC(=O)C(C(=O)NO)N(C)C(=O)c1ccc(-c2ccc(N(C)C)cc2)cc1 (centres unmarked) [Compound 43, 2-[{[4′-(dimethylamino)biphenyl-4-yl]carbonyl}(methyl)amino]-N-hydroxy-N′-methylpropanediamide]",1 µg/mL,7.2 nM,
,,,"CNC(=O)C(C(=O)NO)N(C)C(=O)c1ccc(-c2ccc3c(c2)OC(OC)O3)cc1 (centres unmarked) [Compound 94, N-hydroxy-2-{[4-(2-methoxy-1,3-benzodioxol-5-yl)benzoyl](methyl)amino}-N′-methylpropanediamide]",2 µg/mL,5.6 nM,
1 µg/mL,2 µg/mL,1 µg/mL,"CNC(=O)[C@@](C)(C(=O)NO)N(C)C(=O)c1ccc(C#Cc2ccc(C3(NC)CC3)cc2)cc1 [Compound 435, (2S)-N-hydroxy-N′,2-dimethyl-2-(methyl {[4-({4-[1-(methylamino)cyclopropyl]phenyl}ethynyl)phenyl]carbonyl}amino)propanediamide]",,,
,,,CNC(=O)C(C(=O)NO)N(C)C(=O)c1ccc(-c2ccc(OC)cc2)cc1 (centres unmarked) [Compound 3],0.5 µg/mL,3.3 nM,
,,,"CNC(=O)C(C(=O)NO)N(C)C(=O)c1ccc(-c2ccc3c(c2)OCO3)cc1 (centres unmarked) [Compound 8, 2-{[4-(1,3-benzodioxol-5-yl)benzoyl](methyl)amino}-N-hydroxy-N′-methylpropanediamide]",0.5 µg/mL,5 nM,
,,,"CNC(=O)C(C(=O)NO)N(C)C(=O)c1ccc(-c2ccc(C(F)(F)F)cc2)cc1 (centres unmarked) [Compound 56, N-hydroxy-N′-methyl-2-(methyl {[4′-(trifluoromethyl)biphenyl-4-yl]carbonyl}amino)propanediamide]",1 µg/mL,6.7 nM,
0.5 µg/mL,0.25 µg/mL,0.0625 µg/mL,"CNC(=O)[C@@](C)(C(=O)NO)N(C)C(=O)c1ccc(C#Cc2ccc(CNCc3ccco3)cc2)cc1 [Compound 417, (2S)-2-[({4-[(4-{[(furan-2-ylmethyl)amino]methyl}phenyl)ethynyl]phenyl}carbonyl)(methyl)amino]-N-hydroxy-N′,2-dimethylpropanediamide]",,,
,,,"CNC(=O)C(C(=O)NO)N(C)C(=O)c1ccc(-c2ccc(COC)cc2)cc1 (centres unmarked) [Compound 4, N-hydroxy-2-[{[4′-(methoxymethyl)biphenyl-4-yl]carbonyl}(methyl)amino]-N′-methylpropanediamide]",1 µg/mL,6.1 nM,
,,,"CNC(=O)C(C(=O)NO)N(C)C(=O)c1ccc(-c2ccc3c(c2)CCO3)cc1 (centres unmarked) [Compound 188, 2-{[4-(2,3-dihydro-1-benzofuran-5-yl)benzoyl](methyl)amino}-N-hydroxy-N′-methylpropanediamide]",0.5 µg/mL,5 nM,
0.5 µg/mL,0.5 µg/mL,0.125 µg/mL,"CNC(=O)[C@@](C)(C(=O)NO)N(C)C(=O)c1ccc(-c2ccc(SC)cc2)cc1 [Compound 406, (2S)-N-hydroxy-N′,2-dimethyl-2-(methyl {[4′-(methylsulfanyl)biphenyl-4-yl]carbonyl}amino)propanediamide]",,,
,,,"CNC(=O)C(C(=O)NO)N(C)C(=O)c1ccc(-c2ccc3c(c2)OCC3)cc1 (centres unmarked) [Compound 271, 2-{[4-(2,3-dihydro-1-benzofuran-6-yl)benzoyl](methyl)amino}-N-hydroxy-N′-methylpropanediamide]",0.5 µg/mL,5 nM,
1 µg/mL,2 µg/mL,0.5 µg/mL,"CNC(=O)[C@@](C)(C(=O)NO)N(C)C(=O)c1ccc(C#Cc2ccc(CN3CCC(OC)CC3)cc2)cc1 [Compound 565, (2S)-N-hydroxy-2-[{[4-({4-[(4-methoxypiperidin-1-yl)methyl]phenyl}ethynyl)phenyl]carbonyl}(methyl)amino]-N′,2-dimethylpropanediamide]",,,
,,,"CNC(=O)C(C(=O)NO)N(C)C(=O)c1ccc(-c2ccc(NC)cc2)cc1 (centres unmarked) [Compound 2, N-hydroxy-N′-methyl-2-(methyl {[4′-(methylamino)biphenyl-4-yl]carbonyl}amino)propanediamide]",0.5 µg/mL,7.1 nM,

SMILES,"MIC [1, 4]",MIC [2],MIC (E. coli strain ATCC25922),"MIC [1, 5]","IC50 [3, 6]",other results
"CNC(=O)C(C(=O)NO)N(C)C(=O)c1ccc(C#CC#CC2CC2)cc1 (centres unmarked) [Compound 507, 2-({[4-(4-Cyclopropylbuta-1,3-diyn-1-yl)phenyl]carbonyl}(methyl)amino)-N-hydroxy-N′-methylpropanediamide]",0.25 µg/mL,1 µg/mL,0.125 µg/mL,,,IC50 (E. coli LpxC enzyme): 12 nM
"CNC(=O)[C@@](C)(C(=O)NO)N(C)C(=O)c1ccc(C#Cc2ccc(CN3CC(OC)C3)cc2)cc1 [Compound 567, (2S)-N-hydroxy-2-[{[4-({4-[(3-methoxyazetidin-1-yl)methyl]phenyl}ethynyl)phenyl]carbonyl}(methyl)amino]-N′,2-dimethylpropanediamide]",1 µg/mL,2 µg/mL,0.5 µg/mL,,,IC50 (E. coli LpxC enzyme): 177 nM
"CNC(=O)[C@@](C)(C(=O)NO)N(C)C(=O)c1ccc(-c2ccc3c(ccn3C)c2)cc1 [Compound 402, (2S)-N-hydroxy-N′,2-dimethyl-2-(methyl {[4-(1-methyl-1H-indol-5-yl)phenyl]carbonyl}amino)propanediamide]",1 µg/mL,1 µg/mL,0.125 µg/mL,,,IC50 (E. coli LpxC enzyme): 4.9 nM
"CNC(=O)C(C(=O)NO)N(C)C(=O)c1ccc(-c2ccc(C#CCOC)cc2)cc1 (centres unmarked) [Compound 405, N-hydroxy-2-[{[4′-(3-methoxyprop-1-yn-1-yl)biphenyl-4-yl]carbonyl}(methyl)amino]-N′-methylpropanediamide]",0.5 µg/mL,4 µg/mL,0.5 µg/mL,,,"IC50 ([3]; Table 4, read-out: Pseudomonas aeruginosa LpxC IC50): 2.9 nM; IC50 ([3]; inhibitory activity on Pseudomonas aeruginosa LpxC enzyme, class symbols A/B/C, read-out: Enzyme inhibitory activity): < 10 nM"
"CCOC1CN(Cc2ccc(C#Cc3ccc(C(=O)N(C)C(C(=O)NC)C(=O)NO)cc3)cc2F)C1 (centres unmarked) [Compound 563, 2-[{[4-({4-[(3-ethoxyazetidin-1-yl)methyl]-3-fluorophenyl}ethynyl)phenyl]carbonyl}(methyl)amino]-N-hydroxy-N′-methylpropanediamide]",1 µg/mL,4 µg/mL,1 µg/mL,,,"IC50 ([3]; class symbols A/B/C by IC50, Table 3, read-out: Enzyme inhibitory activity (inhibitory activity on Pseudomonas aeruginosa LpxC enzyme)): < 10 nM"
